Experimental findings from article PMC12483217, “Exploring β-catenin and TCF4 interaction in complex environments by means of novel biosensing platform focal molography” (PLOS One, 2025) are described below.

Where a SMILES comes first, the peptide text is derived from it. Where no end group is shown, it is not given here. The star is where a group is joined. Biotin = O=C1N[C@H]2[C@H](CS[C@H]2CCCCC(=O)*)N1

For test [1], the target named is T1, Human β-catenin (Homo sapiens, UniProt P35222).
T1 construct: Variant: β-catenin (human) (Hs134–670)+TCF4(Hs1–53); purchased Proteros Biostructures
T1 sequence (P35222 134-670): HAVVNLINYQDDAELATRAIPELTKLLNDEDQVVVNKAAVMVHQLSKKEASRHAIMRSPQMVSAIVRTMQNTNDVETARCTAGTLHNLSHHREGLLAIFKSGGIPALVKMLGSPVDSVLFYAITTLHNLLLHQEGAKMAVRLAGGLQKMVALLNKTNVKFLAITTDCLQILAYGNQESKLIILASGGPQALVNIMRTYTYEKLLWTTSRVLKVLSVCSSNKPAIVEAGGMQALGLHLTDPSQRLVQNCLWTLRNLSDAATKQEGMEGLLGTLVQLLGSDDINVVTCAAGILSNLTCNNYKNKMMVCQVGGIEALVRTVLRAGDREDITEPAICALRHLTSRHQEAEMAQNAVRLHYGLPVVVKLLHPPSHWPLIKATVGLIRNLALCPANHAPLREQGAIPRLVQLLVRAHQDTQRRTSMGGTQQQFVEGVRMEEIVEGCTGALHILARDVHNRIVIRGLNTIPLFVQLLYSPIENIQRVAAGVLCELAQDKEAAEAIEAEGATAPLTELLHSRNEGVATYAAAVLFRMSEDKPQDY
Nature of the test: Focal molography (FM) direct binding of β-catenin to immobilised TCO-TCF4(7–30), buffer. The conditions noted are these: range over 3 sensors x 3 runs. As for the experimental part:
(§1) FM experiments were conducted using a prototype FM reader from the “Fermi” generation developed by lino Biotech AG (Supplementary Figure 10 S1 File). The flow channel shape was hexagonal (Supplementary Figure 9 A&C S1 File) and the parallel region measured 12.0 x 1.9 x 0.1 mm. Only 18 molograms were recorded per measurement in order to save computing power for faster sampling rates of the intensities of the single molograms. Thus, the lower part of the double flow chamber was used. In all FM experiments, the same running buffer as in SPR was used. Samples in glass vials were injected from the autosampler (Alias, Spark Holland) and transferred with a syringe pump (Precision Syringe Drive/4, Hamilton) to the flow channel for 17 seconds at a flow rate of 400 µL/min (sample delivery step). […] During the association phase, the sample was passed through the flow chamber for one minute at a flow rate of 50 µL/min. To prevent the recording of the dilutive end of the sample, a fast flow rate of 500 µL/min was applied for two minutes to record the dissociation phase, followed by additional two minutes at a flow rate of 50 µL/min. For the regeneration, regeneration solution was injected from glass vials into the autosampler loop. The regeneration solution was passed through the flow chamber for three minutes at a flow rate of 100 µL/min.
(§2) A sensor chip of FM measured 9 x 18 mm. […]

The target of test [2] is T1, Human β-catenin. Nature of the test: Focal molography (FM) direct binding of β-catenin to immobilised TCO-TCF4(7–30), RKO cell lysate. Particulars: cell lysate 1 Mio cells/mL, range over sensors and runs. As for the experimental part: as §1, §2
In test [3] the target is T1, Human β-catenin. Nature of the test: SPR direct binding of β-catenin to immobilised biotinylated TCF4(7–30) in buffer. The conditions noted are these: only one Hill slope. As for the experimental part: (§3) For all SPR experiments, the running buffer consisting of 10 mM HEPES, 150 mM NaCl, 0.01% (v/v) P20, 1% (v/v) glycerol, 0.01% (v/v) BSA and 2% (v/v) DMSO at pH 7.4 was used. The TCF(7–30) peptide ([…]-K-biotin-amide) peptide was obtained from Biosyntan GmbH. Experiments were conducted at room temperature on a Biacore T200 (GE Healthcare, Uppsala, Sweden). The peptide was immobilized onto a Series S sensor chip SA (10352113, Cytiva, Uppsala, Sweden). Following the manufacturer’s protocol, the sensor was first prepared, and the peptide was injected at a concentration of 10 nM at a flow rate of 10 µL/min. Immobilization was achieved via biotin-streptavidin interaction to a level of 5, 25 and 50 RU in three different flow channels respectively. […] Binding analysis was monitored on all four flow channels with sample association time of one minute and dissociation time of four minutes at a flow rate of 50 µL/min. […]
(§4) The equilibrium dissociation constant (KD) and half maximal inhibitory concentration (IC50) were determined from binding signals collected in direct binding and competition experiments, respectively. […]
(§5) The SPR data was visualized and analyzed using GraphPad Prism 10.0.0 (Boston, Massachusetts USA, www.graphpad.com). For SPR analysis, signals recorded on the active surfaces were referenced with signals from the reference channel. […]

Test [4] deals with T1, Human β-catenin. Nature of the test: SPR competition: free TCF4(7–51) with 250 nM β-catenin over immobilised TCF4(7–30), buffer. In kind it is binding. Particulars: buffer pH 7.4, 95% confidence interval of fit. The procedure:
as §3, §4, §5

The target of test [5] is T1, Human β-catenin. Nature of the test: Focal molography (FM) competition: free TCF4(7–51) with 250 nM β-catenin over TCF4(7–30) sensor, buffer. Particulars: range over 3 sensors x 3 runs. It counts as binding. The procedure:
as §1, §2

The target of test [6] is T1, Human β-catenin. Nature of the test: Focal molography (FM) competition: free TCF4(7–51) with 250 nM β-catenin over TCF4(7–30) sensor, RKO cell lysate. Particulars: cell lysate 1 Mio cells/mL. In kind it is binding. As for the experimental part:
as §1
A sensor chip of FM measured 9 x 18 mm. The sensing area per mologram was 400 x 400 µm with 54 molograms (6 x 9 array) being present on one sensor chip. The center to center spacing of molograms in flow direction was 690 µm and 750 µm perpendicular to the flow. The sensors used in FM were manufactured and treated following published manufacturing protocols with the difference that the photoprotective PhSNPPOC group was replaced by a more hydrophilic PySNPPOC group. To activate the ridges using reactive immersion lithography, a phase mask was placed on the surface with a layer of 0.1% (v/v) hydroxyl amine in DMSO applied in between the mask and the sensor surface. The chip was exposed at 405 nm at a dose of 4000 mJ/cm^2 with a custom-built setup. Following exposure, the chip was incubated in 1 mM methyltetrazine-4-polyethyleneglycol-N-Hydroxysuccinimide (MeTz-PEG4-NHS) dissolved in HBST (10 mM HEPES, 150 mM NaCl, 0.05% (v/v) Tween20, pH 8.0) for 1 hour. After incubation, the chip was washed sequentially with 50:50 H2O/DMSO, DMSO, Isopropanol and H2O. Next, the entire chip surface, including the grooves, was activated by flood illumination with a dose of 18 J/cm^2. The chip was washed sequentially with 50:50 MQ H2O/DMSO, DMSO, Isopropanol and MQ H2O. As a final step, the chip was incubated with 10 mM tetrazine (Tz)-PEG5-NHS in HBST (10 mM HEPES, 150 mM NaCl, 0.05% (v/v) Tween20, pH 8.0) for 1 hour and washed with isopropanol and H2O. […]

The next test addresses T2, beta-catenin (Homo sapiens, UniProt P35222).
T2 chain: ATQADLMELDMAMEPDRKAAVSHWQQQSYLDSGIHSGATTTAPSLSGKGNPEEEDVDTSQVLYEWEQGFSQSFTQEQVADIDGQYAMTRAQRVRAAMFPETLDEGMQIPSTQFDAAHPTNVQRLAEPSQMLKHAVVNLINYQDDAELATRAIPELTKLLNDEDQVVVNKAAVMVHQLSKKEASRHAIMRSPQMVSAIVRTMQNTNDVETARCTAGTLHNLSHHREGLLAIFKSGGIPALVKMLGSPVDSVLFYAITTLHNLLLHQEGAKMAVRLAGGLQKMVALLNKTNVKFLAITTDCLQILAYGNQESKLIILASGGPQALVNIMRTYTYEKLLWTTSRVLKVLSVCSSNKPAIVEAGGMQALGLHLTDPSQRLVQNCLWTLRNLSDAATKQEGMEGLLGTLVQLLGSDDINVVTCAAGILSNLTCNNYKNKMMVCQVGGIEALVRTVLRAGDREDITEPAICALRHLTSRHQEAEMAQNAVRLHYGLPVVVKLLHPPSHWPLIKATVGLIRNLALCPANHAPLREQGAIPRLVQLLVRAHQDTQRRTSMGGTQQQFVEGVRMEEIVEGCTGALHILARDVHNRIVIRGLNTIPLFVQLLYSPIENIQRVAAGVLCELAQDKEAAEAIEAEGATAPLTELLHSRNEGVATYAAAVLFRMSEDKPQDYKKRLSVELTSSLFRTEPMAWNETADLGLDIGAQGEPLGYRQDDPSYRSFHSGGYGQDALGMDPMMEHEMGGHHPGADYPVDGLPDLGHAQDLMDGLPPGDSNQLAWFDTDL
Nature of the test: SPR.

Usually Kd stands for the equilibrium constant for the complex coming apart. For `CC[C@H](C)[C@H](NC(=O)[C@H](CC(C)C)NC(=O)[C@H](CCC(=O)O)NC(=O)[C@H](CC(=O)O)NC(=O)[C@H](CC(N)=O)NC(=O)[C@H](C)NC(=O)CNC(=O)[C@H](CC(C)C)NC(=O)[C@H](CC(=O)O)NC(=O)[C@H](CC(=O)O)NC(=O)CNC(=O)CNC(=O)CN)C(=O)N[C@@H](CO)C(=O)N[C@@H](Cc1ccccc1)C(=O)N[C@@H](CCCCN)C(=O)N[C@@H](CC(=O)O)C(=O)N[C@@H](CCC(=O)O)C(=O)NCC(=O)N[C@@H](CCC(=O)O)C(=O)N[C@@H](CCC(N)=O)C(=O)N[C@@H](CCC(=O)O)C(=O)N[C@@H](CCC(=O)O)C(=O)N[C@@H](CCCCN)C(=O)O` [TCF4(7–30)] (H-GGGDDLGANDELISFKDEGEQEEK-OH), the dissociation constant (Kd) at Human β-catenin [1] is 68 to 160 nM; at Human β-catenin [2], 100 to 140 nM.

As for `CC[C@H](C)[C@H](NC(=O)[C@H](CC(C)C)NC(=O)[C@H](CCC(=O)O)NC(=O)[C@H](CC(=O)O)NC(=O)[C@H](CC(N)=O)NC(=O)[C@H](C)NC(=O)CNC(=O)[C@H](CC(C)C)NC(=O)[C@H](CC(=O)O)NC(=O)[C@H](CC(=O)O)NC(=O)CNC(=O)CNC(=O)CN)C(=O)N[C@@H](CO)C(=O)N[C@@H](Cc1ccccc1)C(=O)N[C@@H](CCCCN)C(=O)N[C@@H](CC(=O)O)C(=O)N[C@@H](CCC(=O)O)C(=O)NCC(=O)N[C@@H](CCC(=O)O)C(=O)N[C@@H](CCC(N)=O)C(=O)N[C@@H](CCC(=O)O)C(=O)N[C@@H](CCC(=O)O)C(=O)N[C@@H](CCCCN)C(=O)N[C@@H](CCCCNC(=O)CCCC[C@@H]1SC[C@@H]2NC(=O)N[C@@H]21)C(N)=O` [biotinylated TCF4(7–30)] (H-GGGDDLGANDELISFKDEGEQEEKK(Biotin)-NH2; N-terminus assumed), the “Hill slope of the dose-response” value at Human β-catenin [3] is reported as 1.21.

As usually defined, the IC50 is the concentration at which inhibition is half-maximal. For the molecule “GGGDDLGANDELISFKDEGEQEEKSSENSSAERDLADVKSSLVNE [TCF4(7–51)]”, the IC50 is 95 to 115 nM at Human β-catenin [4]; 110 to 200 nM at Human β-catenin [5]; 170 nM on Human β-catenin [6] (Sensor 1, average of three runs, SD, read-out: IC50, Average ± SD); 160 nM at Human β-catenin [6] (Sensor 2, average of three runs, SD, read-out: IC50, Average ± SD); 140 nM on Human β-catenin [6] (Sensor 3, average of three runs, SD, read-out: IC50, Average ± SD); 140 to 170 nM at Human β-catenin [6] (range over sensors and runs, read-out: IC50).

B1: TCF4 peptide TCF(7-51) 7-51 (peptide)
chain: GGGDDLGANDELISFKDEGEQEEKSSENSSAERDLADVKSSLVNE
As for B1, in the test with beta-catenin, the Kd is around 108 nM.
